Where “and” joins values, the source holds several entries; their conditions need not be identical. Equal entries are not always repeated.
Tests used:
[1] = Tissue distribution and metabolism: polyamine content of kidney, liver and pancreas via HPLC; type: in vivo, Female CD-1 mice; details: DEHSPM 18.6 mg/kg/d IP x 5 d
Method: The tissue distribution and metabolism of DEHSPM, (HO)2DEHSPM HCl Salt and (HO)2DEHSPM Mesylate Salt in various organs were evaluated utilizing the following protocol:
Tissue Distribution and Metabolism of DEHSPM, (HO)2DEHSPM HCl Salt and (HO)2DEHSPM Mesylate Salt
• 1) DEHSPM, (HO)2DEHSPM HCl salt, and (HO)2DEHSPM mesylate salt were dissolved in sterile normal saline; the pH was not adjusted. • 2) Female CD-1 mice were given the drugs at equimolar dosages intraperitoneally once daily for 5 days. • 3) The animals, n=3-4 per group, were euthanized 4, 8, or 24 h post-last dose. • 4) The kidney, liver, and pancreas were removed and assessed for their polyamine content via HPLC analysis. • 5) The polyamine concentration data (mean±STD) are expressed as nmol/g wet weight of tissue. SPM, spermine; SPD, spermidine; PUT, putrescine; N.D., not determined. • 6) A one-tailed t test assuming unequal variance was performed on the tissue polyamine concentration data. A value of p<0.05 was considered significant.

[2] = mice, three weeks after a seven day schedule; cited from earlier work

## CCNCCCCNCCCCNCCCCNCC [DEHSPM, Diethylhomospermine, reference compound]
[1]; kidney, 4 h post-last dose
  DEHSPM concentration: 428 ± 95 nmol/g wet weight of tissue
  PUT concentration: 0 ± 0 nmol/g wet weight of tissue
  SPD concentration: 270 ± 61 nmol/g wet weight of tissue
  SPM concentration: 243 ± 49 nmol/g wet weight of tissue
[1]; kidney, 8 h post-last dose
  DEHSPM concentration: 425 ± 82 nmol/g wet weight of tissue
  PUT concentration: 0 ± 0 nmol/g wet weight of tissue
  SPD concentration: 159 ± 4 nmol/g wet weight of tissue
  SPM concentration: 240 ± 52 nmol/g wet weight of tissue
[1]; kidney, 24 h post-last dose
  DEHSPM concentration: 260 ± 19 nmol/g wet weight of tissue
  PUT concentration: 0 ± 0 nmol/g wet weight of tissue
  SPD concentration: 150 ± 37 nmol/g wet weight of tissue
  SPM concentration: 223 ± 61 nmol/g wet weight of tissue
[1]; liver, 4 h post-last dose
  DEHSPM concentration: 148 ± 46 nmol/g wet weight of tissue
  PUT concentration: 0 ± 0 nmol/g wet weight of tissue
  SPD concentration: 540 ± 77 nmol/g wet weight of tissue
  SPM concentration: 764 ± 49 nmol/g wet weight of tissue
[1]; liver, 8 h post-last dose
  DEHSPM concentration: 144 ± 7 nmol/g wet weight of tissue
  PUT concentration: 0 ± 0 nmol/g wet weight of tissue
  SPD concentration: 710 nmol/g wet weight of tissue and 710 ± 132 nmol/g wet weight of tissue
  SPM concentration: 899 ± 40 nmol/g wet weight of tissue
[1]; liver, 24 h post-last dose
  DEHSPM concentration: 79 ± 10 nmol/g wet weight of tissue
  PUT concentration: 21 ± 15 nmol/g wet weight of tissue
  SPD concentration: 578 nmol/g wet weight of tissue and 578 ± 150 nmol/g wet weight of tissue
  SPM concentration: 809 ± 45 nmol/g wet weight of tissue
[1]; pancreas, 4 h post-last dose
  DEHSPM concentration: 330 ± 37 nmol/g wet weight of tissue
  PUT concentration: 43 ± 10 nmol/g wet weight of tissue
  SPD concentration: 6054 nmol/g wet weight of tissue and 6054 ± 878 nmol/g wet weight of tissue
  SPM concentration: 1000 nmol/g wet weight of tissue and 1000 ± 124 nmol/g wet weight of tissue
[1]; pancreas, 8 h post-last dose
  DEHSPM concentration: 339 ± 59 nmol/g wet weight of tissue
  PUT concentration: 66 ± 33 nmol/g wet weight of tissue
  SPD concentration: 5789 nmol/g wet weight of tissue and 5789 ± 339 nmol/g wet weight of tissue
  SPM concentration: 1033 nmol/g wet weight of tissue and 1033 ± 290 nmol/g wet weight of tissue
[1]; pancreas, 24 h post-last dose
  DEHSPM concentration: 284 ± 50 nmol/g wet weight of tissue
  PUT concentration: 62 ± 29 nmol/g wet weight of tissue
  SPD concentration: 5807 nmol/g wet weight of tissue and 5807 ± 262 nmol/g wet weight of tissue
  SPM concentration: 1146 nmol/g wet weight of tissue and 1146 ± 107 nmol/g wet weight of tissue
[2]
  drug administered remaining in the liver and kidney as drug or metabolites: 35%
  drug remaining in the animal in the form of HSPM: 90%

Source: patent US20130137772A1, “HYDROXYPOLYAMINE SALTS” (priority 2011, published 2013)
